This is an account of results in patent US9309514B2, “G protein-coupled purinergic receptor Gpr17 mediates orexigenic effects of FoxO1 in AgRP neurons” (THE TRUSTEES OF COLUMBIA UNIVERSITY IN THE CITY OF NEW YORK, priority 2012, dated 2016).

For data set [1], the system named is mice. Briefly: Food intake after ICV (3rd ventricle) injection. It is filed as in vivo. An excerpt: ELISA for leptin, insulin, and glucagon measurements (Millipore), and colorimetric assays for plasma free fatty acids and glycerol (Wako) were used.
The effect of delivering cangrelor into the 3rd ventricle of mice on food intake was studied.

Data set [2] deals with mice. Briefly: Glucose tolerance test / blood glucose after Gpr17 agonist administration. In kind it is in vivo. As to conditions: 6 hr fast, test 20 minutes after administration (FIG. 12C). As to the method: FIG. 12A-12D. […] (A) Satiated mice were injected with saline or Gpr17 agonist LTD4 (n=5-7). Food intake was monitored for the following time course. (B) Locomotor activity counts of satiated mice during daytime within 1.5 hours following administration of Gpr17 agonist LTD4 (n=6). (C) After fasting for 6 hrs, saline or LTD4 were administered to the mice (n=6-7). Glucose tolerance test was performed 20 minutes after the administration. […] Glucose was measured before or 20 minutes after the administration.

The subject of data set [3] is AgRP neurons. Briefly: Immunohistochemistry of pSTAT3, pS6 and pAkt in AgRP or POMC neurons after delivery into the 3rd ventricle.
Description: Stereotactic manipulations in 3-4 month-old C57BL/6 mice were performed. Cannulae were placed and allowed 1 week for recovery (−1.8 mm anterior and 0 mm lateral to bregma and 5.3 mm below the skull surface). Correct positioning of the cannulae was verified by monitoring drinking activity after angiotensin injection. […] For immunohistochemistry studies, mice 4-5 hr were perfused after refeeding.
To test whether Gpr17 function affects ARH hormonal signaling in vivo, cangrelor was delivered directly into the 3rd ventricle of mice after an overnight fast and the co-localization of pSTAT3, pS6, and pAkt was determined in either POMC or AgRP neurons, identified by fluorescent reporter, after refeeding.
In data set [4] the test system is AgRP neurons. Put plainly: Patch-clamp electrophysiology of fluorescently labeled AgRP neurons in brain slices. It is filed as cell-based, mice. The method, then:
300-μm coronal ARH slices were prepared from 6- to 8-week-old mice using ice cold sucrose-based cutting solution (adjusted to pH 7.3) containing (in mM): 10 NaCl, 25 NaHCO3, 195 sucrose, 5 glucose, 2.5 KCl, 1.25 NaH2PO4, 2 Na pyruvate, 0.5 CaCl2, and 7 MgCl2 bubbled continuously with 95% O2 and 5% CO2. Slices were allowed to recover at least 45 minutes at room temperature in recording solution (adjusted to pH 7.3) containing (in mM): 125 NaCl, 5 glucose, 25 NaHCO3, 2.5 KCl, 1.25 NaH2PO4, 2 CaCl2, and 1 MgCl2 bubbled continuously with 95% O2 and 5% CO2 before transferring them to a perfusion chamber for recording. Patch pipettes were pulled to resistances of 7-9 MΩ and filled them with solution (adjusted to pH 7.3) containing 128 K gluconate, 10 KCl, 10 HEPES, 0.1 EGTA, 2 MgCl2, 0.3 Na-GTP, and 3 Mg-ATP. Cells were selected using an upright microscope fitted with fluorescence optics (Nikon) and patched under IR-DIC optics. Electrical access was assessed in the whole-cell recording mode using a small-voltage step-pulse before and at the end of the current clamp recordings. Recordings were discarded in which the series resistance had been >15 MΩ. Current clamp recordings were acquired with no current injection using a MultiClamp 700B amplifier and Clampex data acquisition software (Axon Instruments). Action potential (AP) firing frequency, membrane potential, and AP amplitude using MiniAnalysis (Synaptosoft) were recorded at room temperature and analyzed. Electrophysiological recording to measure mEPSC and mIPSC in brain slices was performed as previously described (Pinto et al., 2004).
The electrophysiological properties of AgRP neurons identified using fluorescent reporters in brain slices from wild-type and Agrp-Foxo1^−/− mice (FIG. 5D-F) were studied. […] Furthermore, insulin suppressed the firing frequency of wild-type cells to ˜35% of basal level, a nearly three-fold reduction. Despite the lower basal firing frequency, insulin further suppressed the firing frequency of knockout neurons, with a 100-fold reduction. Insulin caused a similar reduction in membrane potential in wild-type and knockout cells (˜−20 mV).
Given the favorable metabolic profile of Agrp-Foxo1^−/− mice, experiments were designed to identify FoxO1 targets that mediate its effects and are readily targetable by chemical means. […] Next, Gpr17 regulation in ARH punch biopsies from fasted and refed mice was examined. […] To investigate the function of Gpr17 in AgRP neurons, the electrophysiological properties of fluorescently labeled AgRP neurons in response to the Gpr17 antagonist, cangrelor were tested. […] Therefore, inhibition of Gpr17 can affect the electrical activity of AgRP neurons in an insulin-mimetic fashion, supporting our hypothesis.

The subject of another data set is Neuro2A (N2A) cells. Briefly: Insulin signaling (pAkt western blot) in wild type N2A cells treated with or without cangrelor. In kind it is cell-based. The note with it: serum starved overnight, stimulated with insulin. The method, then: FIG. 14. Neuro2A (N2A) cells are a suitable model for studying the molecular mechanisms of Gpr17 signaling. Wild type N2A cells (treated with or without cangrelor) were serum starved overnight and stimulated with insulin. Insulin signaling activity was gauged by measuring pAkt by western blot. N2A cells express minimal endogenous Gpr17.
More experiments were conducted to study the in vivo regulation of Gpr17 expression by FoxO1. It was discovered that Knocking out FoxO using Synapsin-Cre in mediobasal hypothalamus (MBH) caused a concomitant reduction of Gpr17, further showing that Gpr17 is the endogenous target of FoxO. FIG. 13, panel A. Moreover, Gpr17 expression was elevated in the hippocampus of insulin resistant diabetic GIRKO mice. FIG. 13, panel B. Further studies of Gpr17 expression showing that it contributes to the causality of diabetes, were conducted using Neuro2A (N2A) cells that express minimal endogenous Gpr17. Wild type N2A cells (treated with or without cangrelor) were serum starved overnight and then stimulated with insulin. Insulin signaling activity was gauged by measuring pAkt by western blot. […] FIG. 14.

For data set [5] the following is noted: in vivo; cited from earlier work.
The next data set relates to platelet. As to conditions: 4 μg/kg per minute IV, in approximately 70% of patients after 15 min; cited from earlier work.
The subject of a further data set is mouse Gpr17. Briefly: siRNA knockdown of Gpr17 in Gpr17-mCherry stable line (diminished mCherry signal). In kind it is cell-based. As to conditions: Gpr17-mCherry stable line transfected with RNAi construct. An excerpt: Seven siRNA sequences were designed based on the gene sequence of mouse Gpr17. DNA oligomers were ligated into a MSCV-P2Gm vector and verified by sequencing. The correct clones were used for further evaluation of the effectiveness of each RNAi construct. Gpr17-mCherry-stable line was transfected with each of the seven constructs. The effectiveness of RNAi was scored by the diminished mCherry signal in cells. […] The resultant adenovirus expresses RNAi upon Cre-dependent recombination. Seven oligomer sequences to generate Gpr17 RNAi. The 7 oligomers were ligated into the vector (MSCV-P2Gm) to generate RNAi specific for Gpr17 gene. The sequences are provided as following. The common adaptor sequence is provided, and the targeting siRNA (specific for mouse Gpr17) sequence is highlighted with underline.
In another series of experiments, siRNA sequences that knock down Gpr17 were identified. Seven candidate siRNA sequences conjugated to Gfp (green) and directed against mouse Gpr17 were cloned into a vector and their ability to inhibit Gpr17 expression was determined in Gpr17-mCherry stable line by their effectiveness in diminishing red fluorescence. Seven candidate sequences against mouse Gpr17 were cloned into vector. The resultant adenovirus expresses RNAi upon Cre-dependent recombination. Various degrees of knockdown of Gpr17 were achieved using siRNA.

The mark [6] stands for this setting: delivered into 3rd ventricle after overnight fast, determined after refeeding.
[7] abbreviates: cangrelor treatment (90 nM), same neurons before and after.
Setting [8] is: 3rd ventricle, overnight fast, refeeding, in a subset of AgRP neurons.
Setting [9] is: insulin, wild-type AgRP neurons.

As to `CCCCC/C=C\C\C=C/C=C/C=C/[C@@H](SC[C@H](N)C(=O)NCC(=O)O)[C@@H](O)CCCC(=O)O` [LTD4], the food intake entry in the data set with mice [1] (satiated mice injected with saline or LTD4 (FIG. 12A)) is on record as “increases food intake”. The “glucose tolerance test / neuronal regulation of glucose homeostasis” value in the data set on mice [2] is “impairs neuronal regulation of glucose homeostasis”. Also, the “pSTAT3 content in AgRP neurons” value in the data set on AgRP neurons [3] (setting [6]) is recorded as “decreased”.

`CSCCNc1nc(SCCC(F)(F)F)nc2c1ncn2[C@@H]1O[C@H](COP(=O)(O)OP(=O)(O)C(Cl)(Cl)P(=O)(O)O)[C@@H](O)[C@H]1O` [cangrelor, [dichloro-[[[(2R,3S,4R,5R)-3,4-dihydroxy-5-[6-(2-methylsulfanylethylamino)-2-(3,3,3-trifluoropropylsulfanyl)purin-9-yl]oxolan-2-yl]methoxy-hydroxyphosphoryl]oxy-hydroxyphosphoryl]methyl]phosphonic acid]: in the data set with AgRP neurons [4] (setting [7]), the “firing frequency of AgRP neurons” value is recorded as “significantly reduced” and the “membrane potential of AgRP neurons” value was “lower”. Besides, the “food intake during refeeding” value in the data set with mice [1] (Agrp-Foxo1−/− mice, overnight fast, cangrelor into 3rd ventricle) is on record as “completely unaffected”. In the data set on Neuro2A (N2A) cells, the “insulin signaling (pAkt by western blot)” value is listed as “minimal effect”. For the same molecule, in data set [5], the plasma half-life entry was “three to six”. Moreover, the platelet inhibition in the data set on platelet was 100%. Also, the “pAkt and pS6 in POMC neurons” value in the data set with AgRP neurons [3] (3rd ventricle, overnight fast, refeeding) is recorded as “without effecting detectable changes”. For the same molecule, in the data set with AgRP neurons [3] (setting [8]), the “pAkt in AgRP neurons” value is “increased” and the “pS6 in AgRP neurons” value was “increased”. Besides, in the data set with AgRP neurons [3] (setting [6]), the “pSTAT3 content in AgRP neurons” value was “specifically and dramatically increased”; the “pSTAT3 content in POMC neurons” value is on record as “not in POMC neurons”.

With “insulin: anorexigenic hormone applied to AgRP neurons in brain slices”, the “fold reduction of firing frequency” value in the data set on AgRP neurons [4] (insulin, Agrp-Foxo1−/− (knockout) AgRP neurons) was 100 fold. For the same molecule, in the data set with AgRP neurons [4] (setting [9]), the “firing frequency relative to basal level” value is given as ~35 % of basal level and the “fold reduction of firing frequency” value is listed as “three”. For the same molecule, in the data set on AgRP neurons [4] (insulin, wild-type and knockout cells), the “reduction in membrane potential” value is on record as ~−20 mV.

B1: SEQ ID NO. 7: oligomer ligated into MSCV-P2Gm vector to generate RNAi specific for mouse Gpr17 (nucleic acid)
DNA: TGCTGTTGACAGTGAGCGCCCGGATCACCTCCTGCCTCACTAGTGAAGCCACAGATGTAGTGAGGCAGGAGGTGATCCGGTTGCCTACTGCCTCGGA
As for B1, the “effectiveness in knocking down Gpr17 expression (diminishing red fluorescence)” value (shortened to “effectiveness”) in the data set on mouse Gpr17 was “most effective”.

B2: SEQ ID NO. 6: oligomer ligated into MSCV-P2Gm vector to generate RNAi specific for mouse Gpr17 (nucleic acid)
DNA: TGCTGTTGACAGTGAGCGATGGCTTCCTCTTCTATCTGAATAGTGAAGCCACAGATGTATTCAGATAGAAGAGGAAGCCAGTGCCTACTGCCTCGGA
Turning to B2, the “effectiveness” value in the data set with mouse Gpr17 is given as “most effective”.

B3: SEQ ID NO. 9: oligomer ligated into MSCV-P2Gm vector to generate RNAi specific for mouse Gpr17 (nucleic acid)
DNA: TGCTGTTGACAGTGAGCGAAACTGTACCGGGAGAAGGCCTTAGTGAAGCCACAGATGTAAGGCCTTC
On to B3, for which the “effectiveness” value in the data set on mouse Gpr17 was “most effective”.
